The subject of data set [1] is infliximab. The experiment in a line: Thermal degradation assay at 55° C., normalized monomer loss rate by HP-SEC (Example 51). It is filed as physicochemical. Particulars: infliximab about 2 mg/mL, 20 mM phosphate pH 7, 55° C. The method, then: ® infliximab was obtained from the Clinigen Group and reconstituted according to the instructions in the Janssen package insert, resulting in a 10 mg/mL infliximab solution in 5 mM phosphate buffer, pH about 7, with 50 mg/mL sucrose and 0.05 mg/mL polysorbate 80. The reconstituted drug product was then combined 1:1 by volume with 50 mM sodium acetate buffer at pH 5. The resulting solution was then injected onto a small preparative scale cation exchange column (GE Healthcare, Chicago, IL). After the infliximab was loaded onto the column, the column was washed with 10 column volumes of 50 mM sodium acetate buffer, pH 5. The infliximab was then eluted from the column with five column volumes of a 250 mM sodium chloride, 50 mM sodium acetate buffer at pH 5. […] Stock solutions of either 4 or 8 mg/mL infliximab in 20 mM phosphate buffer at pH 7 were then used in subsequent tests.
All excipients used in this Example, listed in Table 52 below, were of the highest purity, and were obtained from Sigma Aldrich (St. Louis, MO) or Cayman Chemical (Ann Arbor, MI). The stock infliximab solutions were mixed with stock excipient solutions containing the excipients listed in Table 52 formulated in 20 mM phosphate buffer, pH 7 to achieve a final infliximab concentration of about 2 mg/mL in each sample. The samples containing the infliximab solutions and the stock excipient solutions were then aliquoted into five 100 μL aliquots in PCR tubes. […] These stressed samples were then analyzed for monomer content by high performance size exclusion chromatography (HP-SEC) using an Agilent 1100 series HPLC equipped with a diode array detector monitoring absorbance at 280 nm. […] For each sample, the monomer peak area was divided by the monomer peak area obtained from an identical but unstressed sample to obtain the percent monomer remaining after exposure to thermal stress. The remaining monomer as a percentage of the unstressed sample was then plotted as a function of incubation time and the absolute value of the slope of a linear fit to the data was recorded as the monomer loss rate.
For orientation: SEC sorts molecules by how far they enter the pores of the column.

Data set [2] relates to ustekinumab. The data set can be described thus: Stabilization at low pH, Sypro orange fluorescence (Example 45). The settings on record: excipient 5 mg/mL, ustekinumab 1 mg/mL, glycine acidification buffer pH 2.6, Sypro orange fluorescence.
Data set [3] has as its system omalizumab. The data set can be described thus: Freeze/thaw stress (6 cycles), monomer by SE-HPLC (Example 57). It is filed as physicochemical. The settings on record: excipient 100 mM, omalizumab 2 mg/mL, 20 mM Histidine pH 6.0, freeze (−80° C.)/thaw. How it is done:
Therapeutic proteins are frequently kept at low temperatures to improve their kinetic stability and minimize structural perturbations that could lead to the aggregation of the protein and a decrease in the active native species. In certain cases, this might be done by freezing the formulation until use. However, the low temperatures, concentration gradients, and ice formation during repeated freezing and thawing can stress the protein. […] The formulations were then aliquoted into 0.5 mL cryovials and frozen at −80° C. for 120 min. The samples were then thawed using a water bath kept at room temperature.

The test system of data set [4] is infliximab. The experiment in a line: Thermal stability at 50° C. with caffeine and excipients, SE-HPLC (Example 63). The format is physicochemical. Particulars: excipient 0.5 M, caffeine 50 mM, infliximab 10 mg/mL, 5 mM phosphate pH 7.5, 50° C., 180 min. How it is done: Therapeutic proteins stress leads to aggregation of the protein and a decrease in the active native species. […] The aliquots were withdrawn at 0 min, 90 min and 180 min. […] Diode array detector.

Data set [5] deals with ustekinumab. The experiment in a line: Urea denaturation, Sypro orange fluorescence (Example 44). Particulars: excipient 5 mg/mL, ustekinumab 1 mg/mL, 6M urea, 20 mM histidine pH 6.0, Sypro orange fluorescence. It is filed as physicochemical. An excerpt: It is known that urea denatures proteins in solution and causes them to unfold. The screening methodology in this example involved adding a specific concentration of urea to a therapeutic protein solution such as ustekinumab. […] One method to track protein unfolding involves the use of extrinsic fluorescent dyes such as Sypro orange. Sypro orange binds to hydrophobic regions in the unfolded protein structure, leading to an increase in the fluorescence signal observed. Measuring the differences in the fluorescence intensity of unfolded protein-Sypro orange complex in presence of different excipients thus allows one to identify any stabilizing effects.
All excipients used in this Example, listed in Table 45 below, were of the highest purity, and were obtained from Sigma Aldrich (St. Louis, MO) or Cayman Chemical (Ann Arbor, MI). […] This urea stock solution was then added to a final concentration of 6M to produce the test solutions (excipient plus protein plus urea). […] The pH of the mixture was rechecked and confirmed to be at pH 6.0. The test solutions were allowed to incubate at room temperature for 30 min.

Data set [6] has as its system ustekinumab. The data set can be described thus: Thermal stability at 65° C., monomer by SE-HPLC (Example 46). It is filed as physicochemical. Particulars: excipient 5 mg/mL, ustekinumab 1 mg/mL, 20 mM histidine pH 6.0, incubated at 65° C. An excerpt:
Therapeutic proteins are frequently subjected to fluctuations in temperatures which may lead to changes in tertiary and secondary structural elements. This can lead to aggregation of the protein and decrease the amount of active native protein. […] All excipients used in this Example, listed in Table 47 below, were of the highest purity, and were obtained from Sigma Aldrich (St. Louis, MO) or Cayman Chemical (Ann Arbor, MI).

The test system of data set [7] is omalizumab. The experiment in a line: Freeze-thaw stability, light scattering at 350 nm (Example 48). It is filed as physicochemical. The settings on record: excipient 5 mg/mL, omalizumab 5 mg/mL, 20 mM histidine pH 6.0, at least 5 freeze (−80° C.)/thaw cycles.
Data set [8] has as its system omalizumab. The experiment in a line: Mechanical shear stress (agitation 72 h), absorbance at 350 nm (Example 47). The format is physicochemical. Particulars: excipient 0.5 mg/mL, omalizumab 2 mg/mL, 22° C., 72 h agitation at 300 rpm.
Description: Excipients that offer protection against shear stresses were identified by agitating therapeutic protein solutions in the presence of the test excipients (listed in Table 48 below) and observing any change in the number of aggregated particles. […] The samples were transferred to a 0.5 mL cryogenic vial (ThermoFisher, Waltham MA) and secured to an orbital shaker. They were then incubated at 22° C. for 72 h with agitation set at 300 rpm. At the end of incubation period, 100 μL of each sample was transferred to 96-well plates, and the absorbance was measured at 350 nm. Any increase in aggregation was measured by observing the changes in light scattering at 350 nm, and comparing those changes to the light scattering at 350 nm of a control formulation (prepared identically to the test samples but without the addition of the excipient). Excipients that are protective in nature were identified by their ability to slow the rate of aggregation and decrease the A350 absorbance value after the agitation step.
In a further data set the test system is ustekinumab-FITC. The experiment in a line: Thermal stability of model ADC at 65° C. by SE-HPLC (Example 56). The settings on record: excipient 5 mg/mL, ustekinumab-FITC 1 mg/mL, 20 mM Histidine pH 6.0, 65° C.
Data set [9] has as its system ustekinumab. The experiment in a line: Thermal stability at 65 deg C., increase in percent monomer by SE-HPLC (Example 55). It is filed as physicochemical. Particulars: excipient 5 mg/mL, ustekinumab 1 mg/mL, 20 mM Histidine pH 6.0, 65 deg C., 120 min. An excerpt: Therapeutic proteins are frequently subjected to fluctuations in temperatures, which may lead to changes in their tertiary and secondary structural elements. This leads to aggregation of the protein and a decrease in the active native species.

As to `OC[C@H]1O[C@H](O[C@H]2O[C@H](CO)[C@@H](O)[C@H](O)[C@H]2O)[C@H](O)[C@@H](O)[C@@H]1O` [trehalose], in the data set with infliximab [1] (excipient 200 mM), the Monomer loss rate stood at 0.0737 % mon/min and the “Normalized monomer loss rate” value is on record as 0.460. Besides, in the data set on infliximab [1] (excipient 250 mM), the Monomer loss rate is recorded as 0.0781 % mon/min and the “Normalized monomer loss rate” value is 0.488. Further, the “% change in stability” value in the data set with ustekinumab [2] came out at 2.5%. For the same compound, the “% increase in monomer content vs. control” value with omalizumab [3] is given as 77.68%. Take `O[C@H]1[C@H](O)[C@@H](O)[C@H](O)[C@@H](O)[C@H]1O` [Inositol]: in the data set with infliximab [4], the “% change compared to control” value turned out to be 58.9%. Take `OC[C@H]1O[C@@](CO)(O[C@H]2O[C@H](CO)[C@@H](O)[C@H](O)[C@H]2O)[C@@H](O[C@H]2O[C@H](CO)[C@@H](O)[C@H](O)[C@H]2O)[C@@H]1O` [Melzitose]: the “% change in stability” value in the data set with ustekinumab [2] is 2.0%. Moreover, the “% increased stability” value in the data set with ustekinumab [5] stood at 4.7%. In addition, the “Monomer Fraction % change from control” value in the data set with ustekinumab [6] came out at 2.0%.

Maltotriose: the “% change compared to control” value in the data set with infliximab [4] was 12.6%. On to `O=C(O)CN(CCN(CC(=O)O)CC(=O)O)CCN(CC(=O)O)CC(=O)O` [DTPA], for which, in the data set with omalizumab [7], the “% reduction in light scattering at 350 nm vs. control” value (“% reduction in light scattering” for short) is listed as 17.2%. On to `CNC[C@H](O)[C@@H](O)[C@H](O)[C@H](O)CO` [Meglumine], for which the “% change in stability” value with ustekinumab [2] was 41.8%. Moreover, the “% reduction in light scattering” value in the data set on omalizumab [7] was found to be 15.3%.

As to `OC[C@H]1O[C@H](OC[C@H]2O[C@H](O[C@]3(CO)O[C@H](CO)[C@@H](O)[C@@H]3O)[C@H](O)[C@@H](O)[C@@H]2O)[C@H](O)[C@@H](O)[C@H]1O` [Raffinose], the “% change in stability” value in the data set with ustekinumab [2] was 2.6%. Further, in the data set with ustekinumab [5], the “% increased stability” value is 1.7%. For the same compound, the “% reduction in light scattering” value with omalizumab [7] was determined as 3.7%. With `OC[C@@H](O)C(O)[C@H](O)CO` [Arabitol], the “% change in stability” value in the data set on ustekinumab [2] turned out to be 3.4%. Also, the “% increased stability” value in the data set with ustekinumab [5] was 2.7%. Moreover, the “Monomer Fraction % change from control” value in the data set on ustekinumab [6] was 6.0%. Further, the “% reduction in light scattering” value with omalizumab [7] is recorded as 17.8%. Turning to `C[N+](C)(C)[O-]` [Trimethyl amine N-oxide], the “% change compared to control” value in the data set with infliximab [4] came to 10.9%. In the case of `OC[C@@H](O)[C@H](O)[C@@H](O)CO` [Xylitol], the “% change in stability” value with ustekinumab [2] is 0.4%. Further, the “% increased stability” value with ustekinumab [5] was 6.3%. Moreover, the “% reduction in light scattering” value with omalizumab [7] came out at 10.7%. Consider `OC[C@H](O)[C@@H](O)[C@H](O)[C@@H](O)CO` [Iditol], for which, in the data set with ustekinumab [2], the “% change in stability” value is on record as 11.6%. In the data set with omalizumab [7], the “% reduction in light scattering” value is 11.7%. On to `CC(=O)N[C@@H]1C(O)O[C@H](CO)[C@@H](O)[C@@H]1O` (stereo partly shown) [N-acetyl mannosamine], for which the “% increase in monomer content vs. control” value with omalizumab [3] worked out at 6.63%. Take `O=C(O)[C@@H]1C[C@@H](O)CN1` [Hydroxyproline]: the “% change compared to control” value in the data set with infliximab [4] came out at 67.3%.

As for `O=C(CO)[C@@H](O)[C@H](O)[C@H](O)[C@H](O)CO` [seduheptalose], the “% reduction in light scattering” value in the data set with omalizumab [7] was 16.0%.

With `NC(=O)c1ccncc1` [Isonicotinamide], in the data set with ustekinumab [2], the “% change in stability” value was 65.4%. Further, the “% reduction in light scattering” value with omalizumab [7] was 4.8%. For the compound `OC[C@H]1O[C@H](O[C@H]2[C@H](O)[C@@H](O)C(O)O[C@@H]2CO)[C@H](O)[C@@H](O)[C@@H]1O` (mixture of isomers) [Maltose], in the data set with infliximab [4], the “% change compared to control” value stood at 9.65%. Turning to `O=C(CO)[C@H](O)[C@H](O)[C@H](O)CO` [Psicose], in the data set on ustekinumab [2], the “% change in stability” value is on record as 1.1%. Moreover, the “% reduction in light scattering” value in the data set with omalizumab [7] came out at 15.3%. Consider `C[C@H](CC[C@@H](O[C@@H]1O[C@H](CO[C@@H]2O[C@H](CO)[C@@H](O)[C@H](O)[C@H]2O)[C@@H](O)[C@H](O)[C@H]1O[C@@H]1O[C@H](CO)[C@@H](O)[C@H](O)[C@H]1O)C(C)(C)O)[C@H]1CC[C@@]2(C)[C@@H]3CC=C4[C@@H](CC[C@H](O[C@@H]5O[C@H](CO[C@@H]6O[C@H](CO)[C@@H](O)[C@H](O)[C@H]6O)[C@@H](O)[C@H](O)[C@H]5O)C4(C)C)[C@]3(C)[C@H](O)C[C@]12C` [Mogroside V], for which the “% decrease of A350 signal vs. control” value in the data set with omalizumab [8] is listed as 68.2%.

On to `C[C@]1(OC(=O)/C=C/c2ccccc2)C[C@@H](O)[C@]2(O)C=CO[C@@H](O[C@@H]3O[C@H](CO)[C@@H](O)[C@H](O)[C@H]3O)[C@@H]21` [Harpagoside], for which the “% decrease of A350 signal vs. control” value with omalizumab [8] is 69.0%. For the compound `O=C[C@@H](O)[C@H](O)[C@H](O)[C@H](O)CO` [Altrose], the “% increase in monomer content vs. control” value worked out at 63.41% in the data set with ustekinumab-FITC and 2.8% with ustekinumab [9]. In the case of `OC[C@H]1O[C@@](CO)(O[C@H]2O[C@H](CO)[C@@H](O)[C@H](O)[C@H]2O)[C@@H](O[C@H]2O[C@H](CO)[C@@H](O)[C@H](O)[C@H]2O)[C@@H]1O` [Melezitose], the “% reduction in light scattering” value in the data set with omalizumab [7] is reported as 7.4%. `OC[C@@H](O)[C@@H](O)[C@H](O)[C@H](O)CO` [Mannitol]: the “% reduction in light scattering” value in the data set on omalizumab [7] amounted to 17.8%. As to `Nc1ncnc2c1ncn2[C@@H]1O[C@H](CO)[C@@H](O)[C@H]1O` [Adenosine], the “% change in stability” value in the data set on ustekinumab [2] was 32.2%. Moreover, the “% increased stability” value in the data set on ustekinumab [5] is reported as 53.6%. For the same compound, in the data set on ustekinumab [6], the “Monomer Fraction % change from control” value was determined as 8.4%. As for `O=C1O[C@@H]([C@H](O)CO)[C@@H](O)[C@H]1O` [Gulonolactone], the results for the “% increase in monomer content vs. control” value in the data set on ustekinumab-FITC, with ustekinumab [9] and in the data set with omalizumab [3] were 79.95%, 2.6% and 10.02%, respectively. On to `O=P(O)(O)C(O)(Cc1cccnc1)P(=O)(O)O` [Risedronate], for which, in the data set on infliximab [4], the “% change compared to control” value was found to be 46.2%. On the same count and under the same terms, the value for `O=C1O[C@H]([C@@H](O)CO)C(O)=C1O[C@H]1O[C@H](CO)[C@@H](O)[C@H](O)[C@H]1O` [Ascorbyl glucoside] was 45.8%.

For the origin of these results see patent publication US20250186600A1, “EXCIPIENT COMPOUNDS FOR PROTEIN FORMULATIONS” (Comera Life Sciences, Inc., priority 2020, published 2025).
